According to publication PMC8392382, “Flavonoids as Human Intestinal α-Glucosidase Inhibitors” (Foods, 2021):
Marks after values point to notes of the source that are not given here.

Assays:
human isomaltase = target: T1, human isomaltase (Homo sapiens, UniProt P14410); test: Isomaltase inhibition in Caco-2/TC7 cell-free extract, isomaltose as substrate, HPAE-PAD; type: biochemical; details: for 15% inhibitory concentration (IC15) Isomaltase / 25% inhibitory concentration (IC25) Isomaltase: isomaltose; for percent inhibition of isomaltase at maximum concentration tested: maximum concentration: acarbose 200, EGCG 1500, quercetin 200, quercetagetin 50, kaempferol 40, galangin 25 µM
T1 construct: an in vitro assay using Caco-2/TC7 cell extracts containing sucrase, maltase and isomaltase was conducted; endogenous in cells; host or cells: Caco-2/TC7 (human colon adenocarcinoma), 21 days post-confluence, crude cell-free extract
T1 sequence (P14410 whole entry): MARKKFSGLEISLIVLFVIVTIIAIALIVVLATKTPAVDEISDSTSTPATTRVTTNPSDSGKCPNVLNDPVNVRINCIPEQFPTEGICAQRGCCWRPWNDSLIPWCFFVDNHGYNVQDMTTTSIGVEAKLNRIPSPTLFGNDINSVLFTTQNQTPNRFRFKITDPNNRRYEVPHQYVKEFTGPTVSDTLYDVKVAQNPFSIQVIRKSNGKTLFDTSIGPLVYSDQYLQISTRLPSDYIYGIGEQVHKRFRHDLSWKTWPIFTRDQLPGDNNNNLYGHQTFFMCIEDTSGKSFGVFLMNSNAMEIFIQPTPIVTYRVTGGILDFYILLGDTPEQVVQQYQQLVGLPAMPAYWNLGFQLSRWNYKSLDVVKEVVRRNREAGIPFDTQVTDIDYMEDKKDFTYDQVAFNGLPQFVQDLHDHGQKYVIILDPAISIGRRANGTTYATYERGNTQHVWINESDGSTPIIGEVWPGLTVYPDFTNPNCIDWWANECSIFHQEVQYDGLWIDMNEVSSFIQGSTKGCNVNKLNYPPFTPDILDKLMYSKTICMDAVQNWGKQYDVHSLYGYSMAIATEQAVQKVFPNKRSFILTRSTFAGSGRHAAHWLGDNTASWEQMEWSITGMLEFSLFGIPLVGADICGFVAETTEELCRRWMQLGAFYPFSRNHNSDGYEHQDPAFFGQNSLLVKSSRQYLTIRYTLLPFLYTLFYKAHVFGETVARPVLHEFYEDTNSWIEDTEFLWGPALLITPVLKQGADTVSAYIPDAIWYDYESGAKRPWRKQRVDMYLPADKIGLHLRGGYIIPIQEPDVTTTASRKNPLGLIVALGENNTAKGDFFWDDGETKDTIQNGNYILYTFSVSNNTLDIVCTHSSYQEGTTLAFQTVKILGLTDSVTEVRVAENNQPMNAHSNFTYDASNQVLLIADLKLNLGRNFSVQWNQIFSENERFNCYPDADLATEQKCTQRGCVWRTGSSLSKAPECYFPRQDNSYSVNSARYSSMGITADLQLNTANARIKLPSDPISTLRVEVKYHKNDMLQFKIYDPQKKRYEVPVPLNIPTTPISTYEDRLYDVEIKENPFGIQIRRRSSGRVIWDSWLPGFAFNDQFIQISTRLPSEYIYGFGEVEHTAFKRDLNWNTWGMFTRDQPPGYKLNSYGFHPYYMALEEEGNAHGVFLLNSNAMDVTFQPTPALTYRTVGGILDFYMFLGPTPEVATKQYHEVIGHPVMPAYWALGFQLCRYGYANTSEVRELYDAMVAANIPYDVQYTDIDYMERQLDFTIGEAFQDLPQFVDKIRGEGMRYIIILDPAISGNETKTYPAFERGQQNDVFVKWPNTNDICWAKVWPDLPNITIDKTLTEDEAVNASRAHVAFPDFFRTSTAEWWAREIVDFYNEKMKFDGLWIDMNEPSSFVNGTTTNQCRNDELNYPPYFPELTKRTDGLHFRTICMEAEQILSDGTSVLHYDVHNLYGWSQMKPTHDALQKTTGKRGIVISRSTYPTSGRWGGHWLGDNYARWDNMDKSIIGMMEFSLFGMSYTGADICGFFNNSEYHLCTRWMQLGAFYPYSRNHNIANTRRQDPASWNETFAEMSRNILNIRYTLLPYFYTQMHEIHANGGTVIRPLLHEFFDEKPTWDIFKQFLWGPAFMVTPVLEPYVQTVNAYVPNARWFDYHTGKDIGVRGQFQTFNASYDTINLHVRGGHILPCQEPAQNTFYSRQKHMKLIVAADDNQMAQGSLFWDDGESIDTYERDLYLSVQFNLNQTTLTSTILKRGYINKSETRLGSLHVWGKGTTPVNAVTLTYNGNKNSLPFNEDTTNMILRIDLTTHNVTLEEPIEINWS
Description: (§1) Disaccharides and monosaccharides were analyzed by HPAE-PAD on the Dionex™ Integrion™ HPIC™ system (Thermo Fisher Scientific). Separation of the carbohydrates was achieved on a CarboPac PA210 column (2 × 150 mm), preceded by a CarboPac PA210 Guard column (2 × 30 mm), with the column and compartment temperatures maintained at 30 °C and 20 °C, respectively. […] Detection was performed using a gold working electrode and AgCl reference electrode at pH ~ 12.0, with a collection rate of 2.00 Hz using the “Gold, Carbo, Quad” waveform. […] A wash injection of only H2O while following the same multistep eluent gradient was performed at the end of every batch (12–14 samples). All injections were performed in duplicate and peak identification was achieved by comparing retention times to the standards. Dionex™ Chromeleon™ 7 Chromatography Data System, version 7.2.9 (Thermo Fisher Scientific, Waltham, MA, USA), was used to process the chromatograms, ensuring peaks were suitably integrated before recording peak area. Sugars were quantified from peak areas using standard curves, with the standards prepared in the same buffer as the samples.
(§2) To mimic intestinal digestion, an in vitro assay using Caco-2/TC7 cell extracts containing sucrase, maltase and isomaltase was conducted. Frozen cells were thawed, 1 mL ice-cold SPB added and then passed through a 21-G needle 15–20 times. The lysate was centrifuged at 14,000× g, 10 min at 4 °C and the supernatant containing cell-free extract (CFE) collected. Total protein concentration in the CFEs was determined by Bradford assay, using the Pierce Coomassie Bradford reagent and BSA standards (Thermo Fisher Scientific, Waltham, MA, USA).
(§3) Assay mixtures, total volume 250 µL, containing CFE (final protein concentration at 0.1–0.35 mg/mL), with or without various concentrations of inhibitors/flavonoids, were prepared and kept on ice. The enzyme reaction was initiated by the addition of ≥20 mM sucrose, maltose or isomaltose and immediately incubating in a 37 °C water bath for 10 min (or various time points during method setup and validation). Following incubation, the enzyme activity was terminated by incubating in a 96 °C water bath for a further 10 min. A positive control without any added inhibitor/flavonoid was simultaneously tested in each batch, and negative controls without enzymes or substrates were also assayed to evaluate the stability of the inhibitors/compounds. Samples were prepared for HPAE-PAD analysis as described in Section 2.3. Specific enzyme activities were determined (U/mg CFE protein) and expressed as a percentage of control enzyme activities accordingly.
(§4) Controls (CFE and substrate only) were prepared by replacing the volume of inhibitor with SPB. […] Estimation of inhibition values were determined in GraphPad Prism and the percentage of inhibition of the sample was calculated following Equation (7) below, where SA = specific activity:(7) Inhibition %=SAcontrol − SAsample/SAcontrol×100
(§5) Enzyme assays were performed at least once for CFEs from biological triplicates, with duplicate injections of each analyzed by HPAE-PAD. MS Excel (Microsoft, Redmond, WA, USA) was used for data processing and analysis. Final inhibition values were expressed as the percentage of control activity (%). The IC15, IC25 and IC50 values were calculated based on the plots created using GraphPad, using the dose-response inhibition (log (inhibitor) vs. normalized response—variable slope) model. The same software was used to determine the apparent Km and Vmax values under the enzyme–kinetic inhibition model, and for statistical analyses using non-parametric multiple comparisons tests. A difference was considered significant at p < 0.05 for all comparisons. All data are expressed as the mean ± SD or SEM, specified accordingly.

human maltase = test: Maltase inhibition in Caco-2/TC7 cell-free extract, maltose as substrate, HPAE-PAD; type: biochemical; details: for 15% inhibitory concentration (IC15) Maltase / IC50 / 25% inhibitory concentration (IC25) Maltase: Caco-2/TC7 CFE, mean ± SEM, n = 3; for 15% inhibitory concentration (IC15) Maltase / 25% inhibitory concentration (IC25) Maltase: maltose; for percent inhibition of maltase at maximum concentration tested: maximum concentration: acarbose 200, EGCG 1500, quercetin 200, quercetagetin 50, kaempferol 40, galangin 25 µM; for IC50: 20 mM maltose, 10 min 37 °C, read-out: 50% inhibitory concentration (IC50) Maltase
Description: Disaccharides and monosaccharides were analyzed by HPAE-PAD on the Dionex™ Integrion™ HPIC™ system (Thermo Fisher Scientific). Separation of the carbohydrates was achieved on a CarboPac PA210 column (2 × 150 mm), preceded by a CarboPac PA210 Guard column (2 × 30 mm), with the column and compartment temperatures maintained at 30 °C and 20 °C, respectively. Eluent was generated using a Dionex™ EGC 500 KOH eluent generator cartridge with Dionex™ continuously regenerated-anion trap column 600, with eluent concentration following a multistep gradient: 12 mM for 12 min, 100 mM for 8 min and 12 mM for 12 min, at a flow rate of 0.2 mL/min and with a sample injection volume of 2.5 μL. Detection was performed using a gold working electrode and AgCl reference electrode at pH ~ 12.0, with a collection rate of 2.00 Hz using the “Gold, Carbo, Quad” waveform. The total run time per sample was 32 min, with 3 min allowed between analyses for sample injection by autosampler. A wash injection of only H2O while following the same multistep eluent gradient was performed at the end of every batch (12–14 samples). All injections were performed in duplicate and peak identification was achieved by comparing retention times to the standards. Dionex™ Chromeleon™ 7 Chromatography Data System, version 7.2.9 (Thermo Fisher Scientific, Waltham, MA, USA), was used to process the chromatograms, ensuring peaks were suitably integrated before recording peak area. Sugars were quantified from peak areas using standard curves, with the standards prepared in the same buffer as the samples.
as §2, §3
Controls (CFE and substrate only) were prepared by replacing the volume of inhibitor with SPB. Activities of sucrase, maltase and isomaltase were considered as 100% (or 0% inhibition) in the absence of an inhibitor. […] Estimation of inhibition values were determined in GraphPad Prism and the percentage of inhibition of the sample was calculated following Equation (7) below, where SA = specific activity:(7) Inhibition %=SAcontrol − SAsample/SAcontrol×100
Enzyme assays were performed at least once for CFEs from biological triplicates, with duplicate injections of each analyzed by HPAE-PAD. MS Excel (Microsoft, Redmond, WA, USA) was used for data processing and analysis. Final inhibition values were expressed as the percentage of control activity (%). […]

yeast α-glucosidase = test system: yeast α-glucosidase; set-up: method as in PMID 26212963, PMID 30245236, PMID 31007116, PMID 23137344; details: cited from earlier work
human sucrase = target: T2, human sucrase (Homo sapiens, UniProt P14410); test: Sucrase inhibition in Caco-2/TC7 cell-free extract, sucrose as substrate, HPAE-PAD; type: biochemical; details: for 15% inhibitory concentration (IC15) Sucrase / 25% inhibitory concentration (IC25) Sucrase / IC50: Caco-2/TC7 CFE, mean ± SEM, n = 3; for 15% inhibitory concentration (IC15) Sucrase / 25% inhibitory concentration (IC25) Sucrase: sucrose; for percent inhibition of sucrase at maximum concentration tested: maximum concentration: acarbose 200, EGCG 1500, quercetin 200, quercetagetin 50, kaempferol 40, galangin 25 µM; for IC50: 20 mM sucrose, 10 min 37 °C, read-out: 50% inhibitory concentration (IC50) Sucrase
T2 construct: an in vitro assay using Caco-2/TC7 cell extracts containing sucrase, maltase and isomaltase was conducted; endogenous in cells; host or cells: Caco-2/TC7 (human colon adenocarcinoma), 21 days post-confluence, crude cell-free extract
T2 sequence (P14410 whole entry): as above
Description: as §1, §2, §3, §4, §5

[1] = test system: human maltase expressed in yeast; test: Inhibition of human maltase expressed in yeast (literature); type: biochemical; details: compared with this paper and ref 30
[2] = target: human maltase expressed in yeast; set-up: method as in PMID 32218677; details: cited from earlier work
[3] = set-up: method as in PMID 9414116; details: cited from earlier work
rat sucrase = details: cited from earlier work
rat maltase = details: cited from earlier work
[4] = Caco-2/TC7 CFE, mean ± SEM, n = 3

O=c1c(O)c(-c2ccc(O)cc2)oc2cc(O)cc(O)c12 [Kaempferol, kaempferol]
15% inhibitory concentration (IC15) Isomaltase (human isomaltase; [4]): 12.5 ± 3.7 ^a µM | 25% inhibitory concentration (IC25) Isomaltase (human isomaltase; [4]): 34.0 ± 8.4 ^a µM | percent inhibition of isomaltase at maximum concentration tested (human isomaltase): ND (27%) | percent inhibition of isomaltase at maximum concentration tested (human isomaltase; listed as kaempferol): < 32% | 15% inhibitory concentration (IC15) Maltase (human maltase): 19.0 ± 5.5 ^bc µM | percent inhibition of maltase at maximum concentration tested (human maltase): ND (25%) | percent inhibition of maltase at maximum concentration tested (human maltase; listed as kaempferol): < 32% | yeast α-glucosidase inhibition (yeast α-glucosidase): 95% | 15% inhibitory concentration (IC15) Sucrase (human sucrase): 14.2 ± 3.7 ^c µM | 25% inhibitory concentration (IC25) Sucrase (human sucrase): 30.3 ± 8.2 ^c µM | percent inhibition of sucrase at maximum concentration tested (human sucrase): ND (31%) | percent inhibition of sucrase at maximum concentration tested (human sucrase; listed as kaempferol): < 32%

C[C@H]1O[C@H](O[C@H]2[C@H](O)[C@@H](O)[C@@H](O[C@H]3[C@H](O)[C@@H](O)C(O)O[C@@H]3CO)O[C@@H]2CO)[C@H](O)[C@@H](O)[C@@H]1N[C@H]1C=C(CO)[C@@H](O)[C@H](O)[C@H]1O (stereo partly drawn) [Acarbose, acarbose, reference compound]
15% inhibitory concentration (IC15) Isomaltase (human isomaltase; [4]): 7.8 ± 0.7 ^a µM | 25% inhibitory concentration (IC25) Isomaltase (human isomaltase; [4]): 14.4 ± 1.1 ^a µM | percent inhibition of isomaltase at maximum concentration tested (human isomaltase): 96% | IC50 (human maltase): 13.9 ± 2.3 µM | 15% inhibitory concentration (IC15) Maltase (human maltase): 2.4 ± 0.4 ^a µM | 25% inhibitory concentration (IC25) Maltase (human maltase): 4.6 ± 0.8 ^a µM | percent inhibition of maltase at maximum concentration tested (human maltase): more than 50% | 15% inhibitory concentration (IC15) Sucrase (human sucrase): 0.32 ± 0.05 ^a µM | 25% inhibitory concentration (IC25) Sucrase (human sucrase): 0.60 ± 0.09 ^a µM

O=C(O[C@@H]1Cc2c(O)cc(O)cc2O[C@@H]1c1cc(O)c(O)c(O)c1)c1cc(O)c(O)c(O)c1 [EGCG, (−)-epigallocatechin-3-gallate, reference compound]
fold lower IC50 (human maltase expressed in yeast) than with Caco-2/TC7 as the enzyme origin [1]: 8–10 fold | IC50 [2]: 20 µM | IC50 (human isomaltase; Caco-2/TC7 CFE, 20 mM isomaltose, 10 min 37 °C, mean ± SEM, n = 3, read-out: 50% inhibitory concentration (IC50) Isomaltase): 462 ± 60.3 µM | 15% inhibitory concentration (IC15) Isomaltase (human isomaltase; [4]): 118.6 ± 18.0 ^b µM | 25% inhibitory concentration (IC25) Isomaltase (human isomaltase; [4]): 241.9 ± 40.4 ^b µM | percent inhibition of isomaltase at maximum concentration tested (human isomaltase): 71% | IC50 (human maltase): 186 ± 40.4 µM | 15% inhibitory concentration (IC15) Maltase (human maltase): 21.7 ± 4.5 ^c µM | 25% inhibitory concentration (IC25) Maltase (human maltase): 43.8 ± 9.2 ^b µM | IC50 (human sucrase): 175 ± 60.1 µM | 15% inhibitory concentration (IC15) Sucrase (human sucrase): 41.2 ± 6.0 ^d µM | 25% inhibitory concentration (IC25) Sucrase (human sucrase): 72.9 ± 10.3 ^d µM | percent inhibition of sucrase at maximum concentration tested (human sucrase): 100%

O=c1c(O)c(-c2ccc(O)c(O)c2)oc2cc(O)c(O)c(O)c12 [Quercetagetin, quercetagetin]
15% inhibitory concentration (IC15) Isomaltase (human isomaltase; [4]): 5.9 ± 1.9 ^a µM | 25% inhibitory concentration (IC25) Isomaltase (human isomaltase; [4]): 20.3 ± 7.3 ^a µM | percent inhibition of isomaltase at maximum concentration tested (human isomaltase): ND (29%) | 15% inhibitory concentration (IC15) Maltase (human maltase): 3.4 ± 0.9 ^ab µM | 25% inhibitory concentration (IC25) Maltase (human maltase): 6.7 ± 1.5 ^a µM | percent inhibition of maltase at maximum concentration tested (human maltase): ND (48%) | IC50 (human sucrase): 21.7 ± 5.3 µM | 15% inhibitory concentration (IC15) Sucrase (human sucrase): 3.5 ± 1.1 ^b µM | 25% inhibitory concentration (IC25) Sucrase (human sucrase): 6.6 ± 1.8 ^b µM | percent inhibition of sucrase at maximum concentration tested (human sucrase): > 50%

O=c1c(O)c(-c2ccc(O)c(O)c2)oc2cc(O)cc(O)c12 [Quercetin, quercetin]
half-life [3]: ~ 24 h | 15% inhibitory concentration (IC15) Isomaltase (human isomaltase; [4]): 104.0 ± 18.8 ^b µM | percent inhibition of isomaltase at maximum concentration tested (human isomaltase): ND (18%) | 15% inhibitory concentration (IC15) Maltase (human maltase): 43.0 ± 3.1 ^d µM | 25% inhibitory concentration (IC25) Maltase (human maltase): 82.0 ± 4.6 ^c µM | IC50 (rat sucrase): > 400 µM | IC50 (rat maltase): 281 µM | IC50 (human sucrase): 162 ± 13.6 µM | 15% inhibitory concentration (IC15) Sucrase (human sucrase): 40.5 ± 5.1 ^d µM | 25% inhibitory concentration (IC25) Sucrase (human sucrase): 69.5 ± 8.2 ^d µM | percent inhibition of sucrase at maximum concentration tested (human sucrase): > 50%

O=c1c(O)c(-c2ccccc2)oc2cc(O)cc(O)c12 [Galangin, galangin]
15% inhibitory concentration (IC15) Isomaltase (human isomaltase; [4]): 9.3 ± 1.2 ^a µM | inhibition at 25 µM (human isomaltase; read-out: percent inhibition of isomaltase at maximum concentration tested): 22% | 15% inhibitory concentration (IC15) Maltase (human maltase): 8.7 ± 1.1 ^abc µM | 25% inhibitory concentration (IC25) Maltase (human maltase): 17.6 ± 2.2 ^a µM | percent inhibition of maltase at maximum concentration tested (human maltase): ND (22%) | 15% inhibitory concentration (IC15) Sucrase (human sucrase): 12.7 ± 2.1 ^c µM | 25% inhibitory concentration (IC25) Sucrase (human sucrase): 20.8 ± 5.5 ^c µM | inhibition at 25 µM (human sucrase; read-out: percent inhibition of sucrase at maximum concentration tested): 33%
